# Experiment: Effects of the sterilization on GDP production
# Assay type: physicochemical
# Details: 4% solution in deionized water; sterilization at 121° C. for 15 minutes
# Procedure: In this example, the inventors studied the influence of sterilization on the production of GDPs, namely 5-hydroxymethyl furaldehyde (5-HMF), furaldehyde and 3,4-dideoxyglucosone-3-ene (3,4-DGE), of solutions using various glucose polymers or glucose.
# 20 ml solutions containing 4% of each of the substances to be tested were prepared in deionized water. The GDP content was measured after sterilization at 121° C. for 15 minutes.
# The 5-HMF and furaldehyde content was determined by liquid chromatography using 5-HMF standards (Merck—Ref. 8.206.78.001) or furaldehyde standards for the calibration respectively), and detection by UV spectrophotometry at 280 nm. For the chromatography, a column with a particle size of 9 μm, 8% crosslinking, an internal diameter of 7.8 mm and a length of 300 mm (HPX 87H column—Biorad—Ref. 125.0140) was used. The conditions were the following: eluent 5 mN H2SO4 […], flow rate of 0.8 ml/min.
# The 3,4-DGE content was determined by liquid chromatography (using pyrazinecarboxamide (Sigma—Ref. P7136) for the calibration) and detection by UV spectrophotometry at 230 nm. For the chromatography, a column with a particle size of 5 μm, a pore size of 120 Å size, an internal diameter of 4.6 mm and a length of 15 cm (Supelcosil LC-18—Supelco—Ref. 58230) was used. The conditions were the following: elution solvent H2O/MeOH, flow rate of 1.0 ml/min.
smiles,measurement,value
"OC[C@H]1OC(O)[C@H](O)[C@@H](O)[C@@H]1O (stereo partly shown) [glucose, anhydrous dextrose]","GDP content after sterilization (5-HMF, furaldehyde, 3,4-DGE)",much higher than that of the glucose polymers

# Source: patent US11498939B2, “Glucose polymers for peritoneal dialysis” (ROQUETTE FRERES, priority 2016, dated 2022)
